Test [1] concerns canonical Wnt signaling in pcDNA3.1-β-catenin transfected HEK293 cells. Put plainly: TOPFlash luciferase reporter assay, HEK293. The conditions noted are these: for TOPFlash luciferase activity / transactivation of canonical Wnt signaling: result in words, Wnt-activated HEK293. Format: cell-based, human. The protocol: (§1) FuGENE 6 (E2962, Promega) in a 96-well plate format was used for the transfection of HEK293 and SW480 cells according to the manufacturer's instructions. […] SW480 cells were co-transfected with 60 ng of the TOPFlash or FOPFlash reporter gene and 40 ng pCMV-RL normalization reporter. Cells were cultured in DMEM and 10% fatal bovine serum at 37° C. for 24 h, and different concentrations of inhibitors were then added. After 24 h, the luciferase reporter activity was measured using the Dual-Glo system (E2940, Promega). Normalized luciferase activity in response to the treatment with the inhibitors was compared with that obtained from the cells treated with DMSO. Experiments were performed in triplicate.
(A reporter such as luciferase makes a cellular process visible.)

In test [2] the test system is FOPFlash luciferase (reporter with eight mutant Tcf binding sites). Format: cell-based, human. The protocol:
as §1

The next test concerns SW480 cells. In words: MTs cell viability assay, SW480. Format: cell-based, human. The conditions noted are these: for IC50: Homo sapiens, SW480, MTs cell viability, 72 h, read-out: IC50 ± SD SW480; for growth of SW480 cells: result in words, MTs. Here is the method: (§2) Colorectal cancer cell lines, SW480, HT29, an HCT116, and human normal cell line HEK293 were seeded in 96-well plates at 4×10^3 cells/well, maintained overnight at 37° C., and incubated with the tested compounds at various concentrations. Cell viability was monitored after 72 h using a freshly prepared mixture of 1 part phenazine methosulfate (PMS, Sigma) solution (0.92 mg/mL) and 19 parts 3-(4,5-dimethylthiazol-2-yl)-5-(3-carboxymethoxyphenyl)-2-(4-sulfophenyl)-2H-tetrazolium (MTs, Promega) solution (2 mg/mL). Cells were incubated in 10 μL of this solution at 37° C. for 3 h, and A490 was measured. […] Experiments were performed in triplicate.

In test [3] the test system is Wnt/β-catenin target genes in SW480 cells.
Experimental: Total RNAs were extracted with TRIzol (Ser. […] The threshold cycle (CT) values were normalized to that of internal reference GAPDH. The primer pairs for human GAPDH were forward: [NT] and reverse: [NT]; for human HPRT forward: [NT] and reverse: [NT]; for human AXIN2 forward: [NT] and reverse: [NT]; for human c-myc forward: [NT] and reverse: [NT]; and for human cyclin D1 forward: [NT] and reverse: [NT]. Experiments were performed in triplicate.
Test [4] addresses T1, β-catenin/Tcf4 PPI (Homo sapiens, UniProt P35222).
T1 sequence (P35222 138-686): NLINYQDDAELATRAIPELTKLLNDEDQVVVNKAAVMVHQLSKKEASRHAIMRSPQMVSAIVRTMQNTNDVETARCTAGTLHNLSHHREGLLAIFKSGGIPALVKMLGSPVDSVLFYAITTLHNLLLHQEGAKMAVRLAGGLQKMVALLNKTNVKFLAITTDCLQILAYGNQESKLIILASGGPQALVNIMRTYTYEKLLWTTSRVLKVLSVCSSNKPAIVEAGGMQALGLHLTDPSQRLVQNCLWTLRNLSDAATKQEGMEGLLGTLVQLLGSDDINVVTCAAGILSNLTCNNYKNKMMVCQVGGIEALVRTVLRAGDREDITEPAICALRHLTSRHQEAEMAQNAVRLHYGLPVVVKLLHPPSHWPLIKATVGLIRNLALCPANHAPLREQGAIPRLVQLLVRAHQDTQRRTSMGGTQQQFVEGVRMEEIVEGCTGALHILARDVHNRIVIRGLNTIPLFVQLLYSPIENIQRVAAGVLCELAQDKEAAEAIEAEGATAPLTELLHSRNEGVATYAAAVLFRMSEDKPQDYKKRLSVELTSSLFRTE
The conditions noted are these: for inhibitory potency for the β-catenin/Tcf PPI in the biochemical assays: result in words, FP and AlphaScreen.
Text: (§3) After β-catenin and fluorescein-Tcf4 form a protein-protein complex, the fluorophore is attached to a high-molecular-weight protein complex (≥60 kDa) and has a low rotational speed when it is excited by plane-polarized light. […] When an inhibitor completely disrupts the β-catenin/fluorescein-Tcf4 PPI, the fluorophore is only attached to Tcf4 (≤6 kDa), and the emitted light after excitation will be largely depolarized due to a high rotational speed of the fluorophore. AlphaScreen is a bead-based assay. […] On laser excitation at 680 nm, the photo sensitizers inside the donor beads convert ambient oxygen to a singlet oxygen state. Only when the donor and acceptor beads are brought within 200 nm can the singlet oxygen molecules diffuse to the acceptor beads, resulting in extensive emission at 570 nm.

In the next test the test system is HCT116 cells. In words: MTs cell viability assay, HCT116. The test is classed as cell-based, human. The following applies: for growth of HCT116 cells: result in words, MTs; for IC50: Homo sapiens, HCT-116, MTs cell viability, 72 h, read-out: IC50 ± SD HCT116. The protocol:
as §2

In the next test the test system is HT29 cells. Put plainly: MTs cell viability assay, HT29. The following applies: Homo sapiens, HT-29, 72 h, read-out: IC50 ± SD HT29. Format: cell-based. Here is the method: as §2
The target of test [5] is T1, β-catenin/Tcf4 PPI.
Text: as §3
Test [6] addresses T1, β-catenin/Tcf4 PPI. In words: biochemical.
Text: as §3
A further test addresses T2, β-catenin/Tcf4 (Homo sapiens, UniProt P35222).
T2 sequence (P35222 138-686): T1 sequence (P35222 138-686)
The conditions noted are these: FP selectivity assay, known inhibitors, footnotes a, b; read-out: Ki ± SD β-catenin/Tcf4; cited from earlier work.

The next test addresses T3, β-catenin/APC-R3 (Homo sapiens, UniProt P35222).
T3 construct: Wild-type β-catenin and its mutants (residues 138-686) were cloned; 6xHis; made in house; host or cells: E. coli BL21 DE3
T3 sequence (P35222 138-686): T1 sequence (P35222 138-686)
The following applies: FP selectivity assay, known inhibitors, footnotes a, b; read-out: Ki ± SD β-catenin/APC-R3; cited from earlier work.

Setting [7] is: read-out: FP Ki ± SD, Table 6, fragments of 18.
The mark [8] stands for this setting: read-out: Ki ± SD AlphaScreen, Table 8, resynthesized 18 and derivatives.
Setting [9] is: read-out: Ki ± SD FP, Table 8, resynthesized 18 and derivatives.

Structures are written as SMILES. Read-outs that look alike come from different tables or passages of the source. Bounds are passed on as bounds.

Turning to `c1ccc2c(c1)c1nc3nonc3nc1n2CCc1nnn[nH]1` [Compound 37, 5-(2-(2H-Tetrazol-5-yl)Ethyl)-5H-[1,2,5]Oxadiazolo[3′,4′:5,6]Pyrazino[2,3-B]Indole], the “TOPFlash luciferase activity / transactivation of canonical Wnt signaling” value in [1] is on record as “suppressed the TOPFlash luciferase activity in a dose-dependent manner”. For the same molecule, in test [2] (even at 200 μM, pcDNA3.1-β-catenin transfected HEK293), the FOPFlash luciferase activity entry is on record as “did not affect”. The IC50 (commonly the concentration that inhibits the measured activity by half) in the test on SW480 cells was 20 µM. In addition, the “expression of house-keeping gene HPRT” value in test [3] (SW480) was “did not affect”. In addition, in test [3] (SW480, dose-dependent), the “expression of AXIN2, cyclin D1, and c-myc (mRNA)” value was “down-regulated”.
Take `O=C1c2ccccc2-c2nc3nonc3nc21` [Compound 19B, 9H-Indeno[1,2-B][1,2,5]Oxadiazolo[3,4-E]Pyrazin-9-One]: the Ki on β-catenin/Tcf4 PPI [4] (setting [7]) stood at 310 ± 11 µM. Further, on β-catenin/Tcf4 PPI [4], the “inhibitory potency for the β-catenin/Tcf PPI in the biochemical assays” value is “some inhibitory activities”.
As for `Nc1nonc1NC(=O)Cn1c2ccccc2c2nc3nonc3nc21` [Compound 26, 2-(5H-[1,2,5]Oxadiazolo[3′,4′:5,6]Pyrazino[2,3-B]Indol-5-yl)-N-(4-Amino-1,2,5-Oxadiazol-3-yl)Acetamide], the “TOPFlash luciferase activity / transactivation of canonical Wnt signaling” value in test [1] is “did not inhibit”. For the same molecule, the “growth of SW480 cells” value with SW480 cells is listed as “did not exhibit the inhibitory activities”. The “growth of HCT116 cells” value with HCT116 cells was “did not exhibit the inhibitory activities”.
`Nc1nonc1C(=O)NCc1ccccc1` [Compound 25]: the Ki at β-catenin/Tcf4 PPI [4] (setting [7]) was 1700 ± 37 µM. The “inhibitory potency for the β-catenin/Tcf PPI in the biochemical assays” value against β-catenin/Tcf4 PPI [4] is “some inhibitory activities”.
In the case of `O=C(O)c1cc2nc(-c3ccc4c(c3)OCO4)c(-c3ccc4c(c3)OCO4)nc2cc1O` [Compound 17], the IC50 was over 100 µM in [1] (Homo sapiens, pcDNA3.1-β-catenin transfected HEK293, 24 h, read-out: TOPFlash IC50 ± SD Wnt-activated HEK293); 110 ± 21 µM in the test on SW480 cells; 300 µM in the test with HT29 cells; 250 ± 21 µM in the test with HCT116 cells. The Ki at β-catenin/Tcf4 PPI [5] (read-out: Ki + SD AlphaScreen, Table 3, purchased screening hits) was 12 ± 0.78 µM; on β-catenin/Tcf4 PPI [4] (read-out: Ki + SD FP, Table 3, purchased screening hits), 8.7 ± 1 µM.
On β-catenin/Tcf4 PPI [6], `NC(=O)c1nonc1N` [Compound 22] yielded a Ki of over 2000 µM.
As to `c1ccc2c(c1)[nH]c1nc3nonc3nc12` [Compound 27, 5H-[1,2,5]Oxadiazolo[3′,4′:5,6]Pyrazino[2,3-B]Indole], the Ki on β-catenin/Tcf4 PPI [5] (setting [8]) is 120 ± 8.7 µM; at β-catenin/Tcf4 PPI [4] (setting [9]) it was 280 ± 12 µM. Also, the “inhibitory potency for the β-catenin/Tcf PPI in the biochemical assays” value against β-catenin/Tcf4 PPI [4] was “poor inhibitory potency”.
Consider `COC(=O)CCn1c2ccccc2c2nc3nonc3nc21` [Compound 30, Methyl 3-(5H-[1,2,5]Oxadiazolo[3′,4′:5,6]Pyrazino[2,3-B]Indol-5-yl)Propanoate], for which the “growth of SW480 cells” value in the test with SW480 cells is recorded as “did not exhibit the inhibitory activities”. Also, the “growth of HCT116 cells” value in the test on HCT116 cells is recorded as “did not exhibit the inhibitory activities”.
As for `N#CCCCn1c2ccccc2c2nc3nonc3nc21` [Compound 36, 4-(5H-[1,2,5]Oxadiazolo[3′,4′:5,6]Pyrazino[2,3-B]Indol-5-yl)Butanenitrile], the Ki on β-catenin/Tcf4 PPI [5] (setting [8]) turned out to be 120 ± 4.2 µM; at β-catenin/Tcf4 PPI [4] (setting [9]) it was 160 ± 8.9 µM.
In the case of `O=C(O)c1cc(-c2ccc(Oc3ccc(Cl)cc3)cc2)on1` [Compound 16], the values for the IC50 in the test on SW480 cells, in the test on HT29 cells and in the test with HCT116 cells were over 400 µM, 430 ± 25 µM and over 400 µM, respectively.
Consider `NC(=S)N/N=C1/c2ccccc2-c2nc3nonc3nc21` [Compound 21], for which the Ki at β-catenin/Tcf4 PPI [4] (setting [7]) came to 240 ± 4.6 µM. The “inhibitory potency for the β-catenin/Tcf PPI in the biochemical assays” value against β-catenin/Tcf4 PPI [4] was “some inhibitory activities”.
For `O=C(O)c1ccc2nc(-c3ccc(Cl)cc3)c(-c3ccc(Cl)cc3)nc2c1` [Compound 15], the half-maximal inhibitory concentration (IC50) with SW480 cells came out at 38 ± 1.1 µM; in the test with HT29 cells, 41 ± 1 µM; in the test with HCT116 cells it was 22 ± 5.9 µM.
With `CCc1ccc(-c2nc(CSCC(=O)NCCc3ccccc3)c(C)o2)cc1` [Compound 8, reference compound], in [2] (reference inhibitors), the “FOPFlash luciferase reporter activity” value was “inhibited”.
For `N/N=C1/c2ccccc2-c2nc3nonc3nc21` [Compound 20, (Z)-9-Hydrazono-9H-Indeno[1,2-B][1,2,5]Oxadiazolo[3,4-E]Pyrazine], the Ki on β-catenin/Tcf4 PPI [4] (setting [7]) came out at 230 ± 6.2 µM.
With `Nc1nonc1C(=O)N1CCCC1` [Compound 23], at β-catenin/Tcf4 PPI [4] (setting [7]), the Ki came out at 1700 ± 28 µM. For the same molecule, on β-catenin/Tcf4 PPI [4], the “inhibitory potency for the β-catenin/Tcf PPI in the biochemical assays” value is listed as “some inhibitory activities”.
As to `COC1=C(C[C@H](C)O)C2c3c(c(O)cc4c3-c3c(cc(O)c5c3C2C(C[C@H](C)O)=C(OC)C5=O)OCO4)C1=O` (stereo partly shown) [Compound 2], the values for the IC50 in the test with SW480 cells, with HT29 cells and with HCT116 cells were 5.5 ± 1.3 µM, 1.8 ± 0.13 µM and 1.2 ± 0.48 µM, respectively. Besides, the Ki at β-catenin/Tcf4 is 150 ± 19 µM; at β-catenin/APC-R3 it was 130 ± 0.38 µM.
For the molecule `CCOC(=O)CCCn1c2ccccc2c2nc3nonc3nc21` [Compound 32, Ethyl 4-(5H-[1,2,5]Oxadiazolo[3′,4′:5,6]Pyrazino[2,3-B]Indol-5-yl)Butanoate], the “growth of SW480 cells” value in the test with SW480 cells is listed as “did not exhibit the inhibitory activities”. Moreover, the “growth of HCT116 cells” value in the test with HCT116 cells is listed as “did not exhibit the inhibitory activities”.
For `CC(C)CNC(=O)c1nonc1N` [Compound 24], the Ki at β-catenin/Tcf4 PPI [6] was over 2000 µM.
Consider `O=C(O)CCCn1c2ccccc2c2nc3nonc3nc21` [Compound 33, 4-(5H-[1,2,5]Oxadiazolo[3′,4′:5,6]Pyrazino[2,3-B]Indol-5-yl)Butanoic Acid], for which the “TOPFlash luciferase activity / transactivation of canonical Wnt signaling” value in [1] is “did not inhibit”. Further, in the test with SW480 cells, the “growth of SW480 cells” value is on record as “did not exhibit the inhibitory activities”. In the test with HCT116 cells, the “growth of HCT116 cells” value is reported as “did not exhibit the inhibitory activities”.

(Values after patent publication US10273246B2, “Methods and compositions of substituted 5H-[1,2,5] oxadiazolo [3′,4′:5,6] pyrazino[2,3-B] indole analogs as inhibitors of β-catenin/T-cell factor protein-protein interactions” (University of Utah Research Foundation, priority 2015, dated 2019).)
